Experiment [1] concerns the target T1, human ACSS2 (Homo sapiens, UniProt Q9NR19).
T1 construct: The cytosolic fraction of BT474 cells was used as a source of the ACSS2 enzyme; endogenous in cells; host or cells: BT474 cells (cytosolic fraction)
Nature of the experiment: ACSS2 enzyme assay (acetyl-CoA formation, LC-MS/MS). The experiment is classed as biochemical. To be noted: cytosolic fraction of BT474 cells as ACSS2 source; 100 μM acetate, CoA and ATP; 2 h at 25° C.; read-out: Enzyme Activity (IC50 range). The procedure, abridged:
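Enzyme source was BT474 cytosolic fraction (100 ng), preincubated 5 min with compound in 25 mM Tris-HCl pH7.4, 1 mM MgCl2, 1 mM DTT, 0.05% Tween20, 1% DMSO. Reaction started with 100 μM each of acetate, CoA and ATP, 2 h at 25 °C, stopped with TCA; acetyl-CoA quantified by LC-MS/MS.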

Experiment [2] deals with [14C] acetate incorporation in macromolecules, BT474 cells. The experiment in a line: Cell based [14C] acetate incorporation assay. The settings on record: Homo sapiens, BT-474, 3 h at 37° C., read-out: Cellular Activity (IC50 range). An outline of the steps: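 BT474 cells (4×10^4/well, plated overnight) were preincubated with compound for 10 min at 37°C in HBSS. They were then given 0.1 μCi [14C]acetate plus 10 μM unlabelled acetate (both in the added acetate solution) for 3 h at 37°C, 5% CO2. Label incorporated into macromolecules was harvested onto PEI-treated filters and counted by scintillation.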

The values below come from patent US20220298115A1, “SMALL MOLECULE INHIBITORS OF ACETYL COENZYME A SYNTHETASE SHORT CHAIN 2 (ACSS2)” (Curadev Pharma Pvt. Ltd., priority 2019, published 2022).

Bounds are passed on as bounds.

T1 sequence (Q9NR19 whole entry): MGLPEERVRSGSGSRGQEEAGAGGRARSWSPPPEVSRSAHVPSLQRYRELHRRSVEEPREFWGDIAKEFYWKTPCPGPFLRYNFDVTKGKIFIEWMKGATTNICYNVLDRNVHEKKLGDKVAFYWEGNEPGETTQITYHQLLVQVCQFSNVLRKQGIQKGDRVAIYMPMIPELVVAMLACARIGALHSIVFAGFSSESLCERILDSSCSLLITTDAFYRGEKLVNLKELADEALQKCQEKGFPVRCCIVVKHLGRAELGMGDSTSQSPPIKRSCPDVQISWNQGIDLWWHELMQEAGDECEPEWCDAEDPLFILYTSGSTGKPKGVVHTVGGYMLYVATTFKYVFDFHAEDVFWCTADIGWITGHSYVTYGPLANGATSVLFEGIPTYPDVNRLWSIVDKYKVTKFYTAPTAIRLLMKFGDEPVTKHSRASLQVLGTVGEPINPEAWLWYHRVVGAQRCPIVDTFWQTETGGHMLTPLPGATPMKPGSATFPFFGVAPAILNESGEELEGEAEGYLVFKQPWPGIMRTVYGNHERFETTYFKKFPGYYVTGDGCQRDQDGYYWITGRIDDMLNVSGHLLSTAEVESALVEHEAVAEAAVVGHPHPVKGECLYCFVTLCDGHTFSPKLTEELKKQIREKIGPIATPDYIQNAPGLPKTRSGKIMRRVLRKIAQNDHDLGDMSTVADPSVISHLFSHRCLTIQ

Regarding `CCCCNC(=O)Nc1ccc2nc(-c3ccccc3)c(-c3ccccc3)cc2c1-c1cccnc1O` [Example 5, 1-butyl-3-(5-(2-hydroxypyridin-3-yl)-2,3-diphenylquinolin-6-yl)urea], the IC50 in experiment [1] and in experiment [2] was under 100 nM throughout.
`CCC(O)CNC(=O)Nc1ccc2nc(-c3ccccc3OCC(C)C)c(-c3ccccc3)cc2c1` (stereo not drawn) [Example 59, 1-(2-hydroxybutyl)-3-(2-(2-isobutoxyphe-nyl)-3-phenylquinolin-6-yl)urea]: the half-inhibitory concentration (IC50) in experiment [1] and in experiment [2] was under 100 nM in each case.
For `CCC(O)CNC(=O)Nc1ccc2nc(C)c(C)c(C(N)=O)c2c1` (stereo not drawn) [Example 69, 6-(3-(2-hydroxybutyl)ureido)-2,3-dimethylquino-line-4-carboxamide], the IC50 (commonly the concentration that inhibits the measured activity by half) in experiment [1] is at most 10000 nM; in experiment [2] it was over 10000 nM.
On to `CCc1nc2ccc(NC(=O)NCC(O)CC)cc2cc1-c1ccccc1` (stereo not drawn) [Example 61, 1-(2-ethyl-3-phenylquinolin-6-yl)-3-(2-hydroxybutyl) urea], for which the IC50 in experiment [1] and in experiment [2] was under 100 nM each time.
Take `CCC(O)CNC(=O)Nc1ccc2nc(-c3ccc(F)cc3)c(-c3ccc(F)cc3)cc2c1` (stereo not drawn) [Example 17, 1-(2,3-bis(4-fluorophenyl)quinolin-6-yl)-3-(2-hydroxybutyl) urea]: the IC50 in experiment [1] and in experiment [2] was under 100 nM throughout.
With `CCC(O)CNC(=O)Nc1ccc2nc(C3CC3)c(-c3ccccc3)cc2c1` (stereo not drawn) [Example 40, 1-(2-cyclopropyl-3-phenylquinolin-6-yl)-3-(2-hydroxybutyl) urea], the IC50 was at most 1000 nM in experiment [1] and at most 10000 nM in experiment [2].
